Experimental data taken from patent US9044465B2, “Use of analgesic potentiating compounds to potentiate the analgesic properties of an analgesic compound” (priority 2008, dated 2015).

What was measured:
[1] = tested on: patients with acute sore throat and pharyngitis; test: Definite Improvement Level (DIL), same study; conditions: single oral dose, placebo 11.1%; for patients who achieved their own Definite Improvement Level on the TSS: Throat Soreness Scale
Experimental: A randomized, double-blind, placebo-controlled single-dose study was performed. In order to be eligible for the study, patients were required to have a history of an acute sore throat and physical evidence of pharyngitis. A total of 99 patients who met pre-specified inclusion and exclusion criteria, including moderate to severe throat pain intensity, as measured by a score≧7 on the Throat Soreness Scale (TSS), were admitted to the study.
At this visit they were shown each baseline rating scale and asked to indicate which level represented “definite improvement” to them (Definite Improvement Level), the Diary was reviewed for completeness by the Study Nurse, and ongoing evaluation and treatment were provided, if necessary, per standard clinic procedures.
After the patient is shown his/her completed Baseline Throat Soreness Scale, the Study Nurse will point to the number which the patient marked at Baseline and instruct the patient:
“Starting at this level with your sore throat, at and below which number means definite improvement to you?”
Next, the Study Nurse will separately show the patient his/her Baseline Difficulty Swallowing Scale, Swollen Throat Scale, Difficulty Talking Scale, and each of the 10 Quality-of-Pain Scales, with the same instructions for each scale.
Analyses were performed on all 99 patients (“intent-to-treat analyses”). […] Definite Improvement Level comparisons were performed using Fisher's Exact Test. Correlations between each new rating scale and the TSS were performed using Spearman Rank Correlation.

[2] = tested on: patients with acute sore throat and pharyngitis; test: Throat Soreness Scale (TSS), randomized double-blind placebo-controlled single-dose study; format: in vivo, human; conditions: single oral dose; for reduction in throat soreness (TSS) compared to placebo over 6 hours: 9 patients per group, vs placebo; for time from which TSS scores separated/differed from placebo: throat soreness difference at individual time points
Experimental: (§1) A total of 99 patients who met pre-specified inclusion and exclusion criteria, including moderate to severe throat pain intensity, as measured by a score≧7 on the Throat Soreness Scale (TSS), were admitted to the study.
(§2) There were 9 patients randomly assigned to each treatment group.
They were discharged home for hourly assessments up to 6 hours post-dose. Patients were allowed alternative analgesic medication at any time during the study.
(§3) The Throat Soreness Scale (TSS), Swollen Throat Scale (SwoTS), Difficulty Swallowing Scale (DSS), Difficulty Talking Scale (DTS), and other Quality-of-Pain Scales were completed at Baseline (immediately pre-treatment). Each of these measurement instruments is a 0-10 ordinal scale (see TEST PROTOCOL below).
(§4) After administration of the assigned study medication, patients completed (1) the Throat Soreness Scale, (2) the Swollen Throat Scale, (3) the Difficulty Swallowing Scale, and (4) the Improvement Assessment (IA) every 15 minutes up to 2 hours. Measurements on the Difficulty Talking Scale and the Quality-of-Pain Scales were obtained after these four assessments at 60 minutes and at 2 hours after treatment.
(§5) After these 2nd hour assessments, patients were discharged from the clinic with a Diary for entering responses on the Throat Soreness Scale, Swollen Throat Scale, Difficulty Swallowing Scale, Difficulty Talking Scale, and Improvement Assessment at 3, 4, 5, and 6 hours. After the 6 hour assessments, patients completed the Quality-of-Pain Scales.
The patient will be asked to evaluate his/her throat soreness using a 0-to-10 ordinal scale at Baseline as well as at 15, 30, 45, 60, 75, 90, 105 and 120 min and then hourly through 6 hours. The patient will be requested to swallow and instructed:
The primary endpoint variable is the Summed Difference in Throat Soreness at 6 hours, which is based on the Throat Soreness Scale. The patient will be asked to evaluate his/her throat soreness, using a 0-to-10 ordinal scale at baseline and at 15, 30, 45, 60, 75, 90, 105 minutes and 2, 3, 4, 5, and 6 hours. At each time point post-dose, a difference is calculated between the throat soreness at that time and the patient's baseline throat soreness. The time-weighted Summed Difference in Throat Soreness at each time point is calculated as the sum of the differences from baseline until that time point.

[3] = tested on: patients with acute sore throat and pharyngitis; test: Improvement Assessment (IA), same study; format: in vivo, human; conditions: single oral dose; for patients who achieved at least some improvement within 30 minutes (IA): first 30 minutes, placebo 1/9; for time from which IA scores separated/differed from placebo: improvement at individual time points; for patients who achieved at least 50% improvement over 6 hours (IA): over the 6-hour treatment period, placebo 2/9; for patients who achieved at least some improvement within 1 hour (IA): placebo 4/9
Description: as §1, §2, §4, §5
The patient will grade the improvement of his/her throat at 15, 30, 45, 60, 75, 90, 105, and 120 minutes, and at 3, 4, 5, and 6 hours post dose using a 5-category transitional scale. The patient will be instructed:
“Considering how your throat felt before you took the study medicine, circle the response that best describes how your throat is now.”
• Grading • no improvement • some improvement • 50% improvement • definite improvement • 100% improvement Data from this scale will be transcribed onto the appropriate Summary Data CRFs. Definite Improvement Level (DIL)

[4] = tested on: patients with acute sore throat and pharyngitis; test: Difficulty Swallowing Scale (DSS), same study; format: in vivo, human; conditions: single oral dose, vs placebo
Description: as §1, §2, §3, §4
as §5, with “Scales. […]” for “Scales.”

[5] = tested on: patients with acute sore throat and pharyngitis; test: Quality of Pain Index (QPI, 12 qualities of throat pain), same study; format: in vivo, human; conditions: single oral dose, vs placebo
Description: as §1, §2, §4, §5
The patient will be instructed to swallow and instructed: […]

[6] = tested on: patients with acute sore throat and pharyngitis; test: Throat Function Index (TFI: swallowing and talking), same study; format: in vivo, human; conditions: single oral dose, vs placebo
Description: as §1, §2
**Difficulty Swallowing and Difficulty Talking comprise the 20-point Throat Function Index.

[7] = tested on: patients with acute sore throat and pharyngitis; test: Difficulty Talking Scale (DTS), same study; format: in vivo, human; conditions: single oral dose, vs placebo
Description: as §1, §2, §3, §4
as §5, with “Scales. […]” for “Scales.”

[8] = tested on: patients with acute sore throat and pharyngitis; test: Swollen Throat Scale (SwoTS), same study; format: in vivo, human; conditions: single oral dose, vs placebo
Description: as §1, §2, §3, §4
as §5, with “Scales. […]” for “Scales.”

Row | SMILES | patients who achieved their own Definite Improvement Level on the TSS [1] [%] | patients who achieved their own Definite Improvement Level on the "It hurts" Quality-of-Pain Scale [1] [%] | patients who achieved their own Definite Improvement Level on the Difficulty Swallowing Scale [1] [%] | reduction in throat soreness (TSS) compared to placebo over 6 hours [2] | time from which TSS scores separated/differed from placebo [2] [min] | patients who achieved at least some improvement within 30 minutes (IA) [3] | time from which IA scores separated/differed from placebo [3] [min] | patients who achieved at least 50% improvement over 6 hours (IA) [3] | patients who achieved at least some improvement within 1 hour (IA) [3] | reduction in difficulty swallowing (DSS) compared with placebo over 6 hours [4] | reduction in the QPI compared with placebo over 6 hours [5] | reduction in the TFI compared with placebo over 6 hours [6] | reduction in difficulty talking (DTS) compared with placebo over 6 hours [7] | reduction in throat swelling (SwoTS) compared with placebo over 6 hours [8]
1 | COc1ccc2cc([C@H](C)C(=O)O)ccc2c1 [naproxen, naproxen sodium] | 22.2 | 33.3 | 33.3 | differentiated from placebo | 30 | 4/9 | 45 | 4/9 | 7/9 |  |  |  |  | 
2 | Cc1ccc(-c2cc(C(F)(F)F)nn2-c2ccc(S(N)(=O)=O)cc2)cc1 [celecoxib] | 77.7 | 55.6 | 66.7 |  | 30 | 3/9 | 45 | 8/9 | 7/9 |  |  |  |  | 
3 | CC(C)Cc1ccc(C(C)C(=O)O)cc1 (centres unmarked) [ibuprofen] | 44.4 | 33.3 | 44.4 | trend | 30 | 6/9 | 30 | 4/9 | 9/9 | greater reduction in difficulty swallowing compared with placebo |  |  |  | 
4 | CC(=O)Nc1ccc(O)cc1 [acetaminophen] | 44.4 | 55.6 | 55.6 | significantly greater reduction in throat soreness compared to placebo | 15 | 8/9 | 30 | 7/9 | 9/9 | significant difference | significantly differentiated from placebo | significantly greater reduction in the TFI | significant | significantly differentiated from placebo
